# From patent US4346087A, “Antibacterial surface active agent containing azaalkenelactam” (priority 1979, dated 1982)
# Read-outs that look alike come from different tables or passages of the source.
# Key:
# Format in all cases: cell-based
# [1] = system: Staphylococcus aureus FDA 209P; assay: MIC against Staphylococcus aureus FDA 209P
# Excerpt: (§1) Below are described the antibacterial activities of the compounds in the compositions according to this invention.
# (§2) The testing method complied with the standard method of Japan Sociaty of Chemotherapy.
# [2] = system: Desulfovibrio desulfuricans IFO 13699; assay: MIC against Desulfovibrio desulfuricans
# Excerpt: as §1, §2
# Escherichia coli NIHJ = assay: MIC against Escherichia coli NIHJ
# Excerpt: as §1, §2
# [3] = Staphylococcus aureus, FDA209P, 24 h
# [4] = Desulfovibrio desulfuricans, IFO13699, 24 h
# [5] = Escherichia coli, Table 1, azaalkenelactams, heart infusion agar, 37° C., 24 hours, read-out: MIC
# [6] = Escherichia coli, Table 2, derivatives having a carboxylate radical, heart infusion agar, 37° C., 24 hours, read-out: MIC
# [7] = Table 1, azaalkenelactams, heart infusion agar, 37° C., 24 hours
Compound,"MIC [1, 3]","MIC [2, 4]","MIC (Escherichia coli NIHJ; Escherichia coli, 24 h)",further results
CCCCCCCCCCCCNCCN1CC[N+](CC(=O)[O-])=C(C)CC1=O [4-dodecylaminoethyl-7-methyl-1-azonia-4-azacyclohept-7-en-5-one-1-acetate],50 µg/mL,12.5 µg/mL,100 µg/mL,
"CCCCCCCCCc1ccc(OCC(O)CNCCNCCNCCN2CCN=C(C)CC2=O)cc1 (stereo not drawn) [Example 32, 4-nonylphenoxy(2-hydroxy)propylaminoethylaminoethylaminoethyl-7-methyl-3,6-dihydro-2H-1,4-diazepin-5-one]",200 µg/mL,25 µg/mL,,MIC (Escherichia coli NIHJ; [5]): 800 µg/mL
"CCCCCCCCCc1ccc(OCCOCCN2CCCN=CC(C)(C)C2=O)cc1 [Example 62, 1-nonylphenylpoly(2 moles)oxyethyleneoxyethyl-3,3-dimethyl-6,7,8-trihydro-1,5-diazocin-5-one]",100 µg/mL,50 µg/mL,200 µg/mL,
CCCCCCCCCCCCCCC(O)CNCCN1CC[N+](CC(=O)[O-])=CCC(C)C1=O (stereo not drawn) [4-(2-hydroxyhexadecyl)aminoethyl-6-methyl-4-aza-1-azoniacyclooct-8-en-5-one-1-acetate],25 µg/mL,25 µg/mL,100 µg/mL,
CCCCCCCCCCCCN1CCC[N+](CC(=O)[O-])=CC(C)C1=O (stereo not drawn) [1-dodecyl-3-methyl-1-aza-5-azoniacyclooct-4-en-2-one-5-acetate],50 µg/mL,25 µg/mL,,MIC (Escherichia coli NIHJ; [6]): 1600 µg/mL
CCCCCCCCCCCCCCNCCN1CCC[N+](C(C)C(=O)[O-])=CC(C)C1=O (stereo not drawn) [1-tetradecylaminoethyl-3-methyl-1-aza-5-azoniacyclooct-4-en-2-one-5-propionate],6.25 µg/mL,6.25 µg/mL,100 µg/mL,
"CCCCCCCC(=O)OCCN1CCN=C(C)CC1=O [Example 24, 4-octoyloxyethyl-7-methyl-3,6-dihydro-2H-1,4-diazepin-5-one]",200 µg/mL,25 µg/mL,,MIC (Escherichia coli NIHJ; [5]): 800 µg/mL
CCCCCCCCCCCCC(O)CN1CCC[N+](CC(=O)[O-])=C(C)CC1=O (stereo not drawn) [1-(2-hydroxy)tetradecyl-4-methyl-1-aza-5-azoniacyclooct-4-en-2-one-5-acetate],25 µg/mL,6.25 µg/mL,100 µg/mL,
CCCCCCC(O)CC=CCCCCCCCC(=O)OC(C)CN1CCCN=C(C)CC1=O (stereo not drawn) [Example 21],50 µg/mL,25 µg/mL,,MIC (Escherichia coli NIHJ; [5]): 800 µg/mL
"CCCCCCCC/C=C\CCCCCCCCNCCCNC(=O)CCCCCCC/C=C\CCCCCCCC [Oleylaminopropyl oleamide, oleylaminopropyloleamide, reference compound]",,100 µg/mL,,"MIC ([1]; Staphylococcus aureus, FDA209P, Table 1, azaalkenelactams, heart infusion agar, 37° C., 24 hours, read-out: MIC): ≥ 10000 µg/mL; MIC (Escherichia coli NIHJ; [5]): ≥ 10000 µg/mL"
"CCCCCCCCCCCCOCC(O)CN1CCCN=C(C)CC1=O (stereo not drawn) [Example 33, 1-docoxy(2-hydroxy)propyl-4-methyl-3,6,7,8-tetrahydro-1,5-diazocin-2-one]",25 µg/mL,25 µg/mL,400 µg/mL,
"CCCCCCCCCCCCCCNCCN1CC[N+](C(C)C(=O)[O-])=CC(C)(C)C1=O (stereo not drawn) [4-tetradecylaminoethyl-6,6-dimethyl-1-azonia-4-azacyclohept-7-en-5-one-1-propionate]",6.25 µg/mL,6.25 µg/mL,100 µg/mL,
"CCCCCCCC/C=C\CCCCCCCC(=O)NCCN1CCN=C(C)CC1=O [Example 10, 4-oleamidoethyl-7-methyl-3,6-dihydro-2H-1,4-diazepin-5-one]",50 µg/mL,6.25 µg/mL,,MIC (Escherichia coli NIHJ; [5]): 1600 µg/mL
"CCCCCCCCCCCCCCCCCCCCCC(=O)OCCCN1CCCN=CC(C)C1=O (stereo not drawn) [Example 51, 1-behenoyloxypropyl-3-methyl-3,6,7,8-tetrahydro-1,5-diazocin-2-one]",,,,"MIC [1, 7]: 25 µg/mL; MIC [2]: 12.5 µg/mL; MIC (Escherichia coli NIHJ; [7]): 100 µg/mL"
CCCCCCCCCCCCN1CCC[N+](CC(=O)[O-])=C(C)CC1=O [1-dodecyl-4-methyl-1-aza-5-azoniacyclooct-4-en-2-one-5-acetate],100 µg/mL,12.5 µg/mL,,MIC (Escherichia coli NIHJ; [6]): 3200 µg/mL
CCCCCCCCCCCCCCCCCCCCCC(=O)OCCN1CC[N+](CC(=O)[O-])=CCCC1=O [4-behenoyloxyethyl-4-aza-1-azoniacyclooct-8-en-5-one-1-acetate],100 µg/mL,12.5 µg/mL,200 µg/mL,

Compound,"MIC [1, 3]","MIC [2, 4]","MIC (Escherichia coli NIHJ; Escherichia coli, 24 h)",further results
CCCCCCCCCCC(O)CN1CC[N+](CC(=O)[O-])=C(C)CC1=O (stereo not drawn) [4-(2-hydroxy)dodecyl-7-methyl-1-azonia-4-azacyclohept-7-en-5-one-1-acetate],100 µg/mL,6.25 µg/mL,200 µg/mL,
CCCCCCCCCCCCCCCCN1CC[N+](CC(=O)[O-])=C(C)CC1=O [4-hexadecyl-7-methyl-1-azonia-4-azacyclohept-7-en-5-one-1-acetate],100 µg/mL,12.5 µg/mL,,MIC (Escherichia coli NIHJ; [6]): 3200 µg/mL
CCCCCCCCCc1ccc(OCCOCCN2CCC[N+](CC(=O)[O-])=C(C)CC2=O)cc1 [1-nonylphenylpoly(2 moles)oxyethyleneoxyethyl-4-methyl-1-aza-5-azoniacyclooct-4-en-2-one-5-acetate],12.5 µg/mL,25 µg/mL,200 µg/mL,
"CCCCCCCC(=O)NCCN1CCN=C(C)CC1=O [Example 23, 4-octamidoethyl-7-methyl-3,6-dihydro-2H-1,4-diazepin-5-one]",25 µg/mL,50 µg/mL,25 µg/mL,
CCCCCCCCCCCCNCCCN1CCC[N+](CC(=O)[O-])=C(C)CC1=O [1-dodecylaminopropyl-4-methyl-1-aza-5-azoniacyclooct-4-en-2-one-5-acetate],12.5 µg/mL,50 µg/mL,100 µg/mL,
"CCCCCC[C@@H](O)C/C=C\CCCCCCCC(=O)NCCN1CCN=CC(C)(C)C1=O [Example 64, 4-ricinolamidoethyl-6,6-dimethyl-3-hydro-2H-1,4-diazepin-5-one]",200 µg/mL,25 µg/mL,400 µg/mL,
4-behenoyloxypropyl-6-methyl-4aza-1-azoniacyclooct-8-en-5-one-1-acetate,,,,"MIC [1]: 200 µg/mL; MIC [2]: 25 µg/mL; MIC (Escherichia coli NIHJ; Table 2, derivatives having a carboxylate radical, heart infusion agar, 37° C., 24 hours): 800 µg/mL"
"CCCCCCCCCCCCCCCCN1CCN=C(C)CC1=O [Example 5, 4-hexadecyl-7-methyl-3,6-dihydro-2H-1,4-diazepin-5-one]",12.5 µg/mL,6.25 µg/mL,,MIC (Escherichia coli NIHJ; [5]): 3200 µg/mL
"CCCCCCCCCc1ccc(OCCOCCN2CCCN=C(C)CC2=O)cc1 [Example 7, 1-nonylphenylpoly(2 moles)oxyethyleneoxyethyl-4-methyl-3,6,7,8-tetrahydro-1,5-diazocin-2-one]",12.5 µg/mL,12.5 µg/mL,200 µg/mL,
"4-methylbenzylpoly(2 moles)oxypropyleneoxypropyl-6-methyl-2,3,6,7-tetrahydro-1,4-diazocin-5-one [Example 67]",,,,MIC [1]: 200 µg/mL; MIC [2]: 50 µg/mL; MIC (Escherichia coli NIHJ): 400 µg/mL
CCCCCCCCCCC(O)CN1CC[N+](CC(=O)[O-])=CC(C)C1=O (stereo not drawn) [4-(2-hydroxy)dodecyl-6-methyl-1-azonia-4-azacyclohept-7-en-5-one-1-acetate],25 µg/mL,25 µg/mL,,MIC (Escherichia coli NIHJ; [6]): 800 µg/mL
CCCCCCCCCCCC(=O)OCCN1CC[N+](CC(=O)[O-])=CC(C)C1=O (stereo not drawn) [4-lauroyloxyethyl-6-methyl-1-azonia-4-azacyclohept-7-en-5-one-1-acetate],50 µg/mL,50 µg/mL,200 µg/mL,
CCCCCCCCCCCCNCCNCCN1CC[N+](CC(=O)[O-])=C(C)CC1=O [4-dodecylaminoethylaminoethyl-1-azonia-4-azacyclohept-7-en-5-one-1-acetate],12.5 µg/mL,6.25 µg/mL,100 µg/mL,
"CCCCCCCCOCCCN1CCN=C(C)CC1=O [Example 8, 4-octoxypropyl-7-methyl-3,6-dihydro-2H-1,4-diazepin-5-one]",50 µg/mL,50 µg/mL,,MIC (Escherichia coli NIHJ; [5]): 800 µg/mL
"CCCCCCCCCCCCNCCCN1CCCN=C(C)CC1=O [Example 36, 1-dodecylaminopropyl-4-methyl-3,6,7,8-tetrahydro-1,5-diazocin-2-one]",12.5 µg/mL,25 µg/mL,50 µg/mL,
"CC1=NCCN(CC(C)OCC(C)OCC(C)OCc2ccc(C)cc2)C(=O)C1 (stereo not drawn) [Example 39, 4-methylbenzylpoly(2moles)oxypropyleneoxypropyl-7-methyl-3,6-dihydro-2H-1,4-diazepin-5-one]",25 µg/mL,50 µg/mL,200 µg/mL,
